Data on three compounds can be found in US9750805B2, “Calcium flux agonists and methods therefor” (Nant Holdings IP, LLC, priority 2012, dated 2017).

The test system of test [1] is κB-LUC THP-1 (NF-κB Luciferase Reporter). In words: NF-κB activation, luciferase reporter, dose response without added ligand. Format: cell-based, human. The settings on record: κB-LUC THP-1, 24 hours, increasing concentrations, no added ligand; FIGS. 1A-1C. From the text:
The inventors performed several studies to identify the effect of calcium flux agonists on various components of an immune response, and particularly on the effect of calcium flux agonists on IL-8 production and activation of NF-κB signaling. […] The dose response is observed over relatively large windows for ionophores (e.g., A23187 and ionomycin) and over at least two orders of magnitude for SERCA inhibitors (e.g., thapsigargin).
More specifically, the dose response of ionophores on NF-κB and IL-8 is shown in FIGS. 1A-1B using a monocyte-derived cell line to treatment and A23187 and ionomycin in the absence of externally added TLR or NOD ligands. […] FIG. 1C depicts the dose response to thapsigargin on NF-κB and IL-8.
NF-κB activation: A titration of thapsigargin (A.G. Scientific), ionomycin, and the calcium ionophore A23187 was added to a 96-well plate (Thermo Matrix) seeded with 150,000 THP-1 κB-LUC THP-1's (THP-1 cells containing the stable integration of a NF-κB Luciferase Reporter) grown in RPMI 1640 (Cellgro, Herndon VA) supplemented with 10% FBS (Thermo HyClone) and 1% penicillin-streptomycin-fungizone (Thermo HyClone). 24 hours after addition, 25 uL of Bright-Glo Luciferase Assay System (Promega, Madison Wis.) was added to each well and analyzed for luciferase activity using Perkin Elmer TopCount NXT (Perkin Elmer, Waltham Mass.).
For orientation: In a reporter assay the amount or activity of a reporter protein is the signal.

Test [2] concerns κB-LUC THP-1 reporter cells. In words: κB-LUC THP-1 reporter response to S. aureus conditioned/spent media (FIGS. 5B-5E). Format: cell-based, human. As to conditions: 1:100 conditioned media, 18 hours; 20 nM thapsigargin, 316 nM A23187, 1 μM ionomycin vs DMSO vehicle. From the text: Briefly, a culture of logarithmically dividing S. aureus was washed three times with RPMI 1640 (Cellgro). Concurrently, THP-1 κB-LUC THP-1's (THP-1 cells containing the stable integration of a NF-κB luciferase reporter gene) cultured in RPMI 1640 (Cellgro) supplemented with 10% FBS (Thermo HyClone, Waltham Mass.) and 1% penicillin-streptomycin-fungizone (Thermo HyClone) were washed three times with RPMI 1640 (Cellgro) and transferred to the bottom compartment of a 24-well 0.4 μm cutoff transwell plate (Corning) at a concentration of 1.2 million/mL. Dilutions of the washed S. aureus culture were then added to the top chamber of the transwell system at the indicated initial multiplicities of infection (MOI). The cells were incubated for 18 hours at 37° C. at which time aliquots of 60,000 cells were transferred to wells in a 384-well white bottom plate (Thermo). To evaluate luciferase gene expression, Bright-Glo Luciferase Assay Reagent (Promega) was added to each well and the plates were analyzed for luciferase activity using the Perkin Elmer TopCount NXT system (Perkin Elmer).
To determine whether the recognition of S. aureus-produced products could be further augmented through modulation of calcium flux, κB-LUC THP-1 reporter cells were incubated in the presence of a 1:100 dilution (V/V) of sterile filtered S. aureus conditioned (i.e. spent) or unused sterile media and treated with a suboptimal dose (20 nM) of thapsigargin or dimethyl sulfoxide (DMSO) vehicle control as described above. Briefly, conditioned media was produced by culturing S. aureus in RPMI with 10% fetal bovine serum overnight in a shaking incubator at 37° C. following which the bacteria were pelleted by centrifugation and the supernatants filter-sterilized using a 0.2 μm filter (VWR Radnor PA). The κB-LUC THP-1 cells were incubated in the presence of the conditioned/spent media for 18 hours prior to luciferase assay as described above.

For test [3], the system named is S. aureus. The test can be described thus: Mouse model of S. aureus skin wound infection, pre-infection topical treatment. The format is in vivo, C57BL/6 mice. As to conditions: topical 2 mM formulation one day before infection; for bacterial burden at the infection site: day 7, vs vehicle controls; for wound size: days 3, 5 and 7 of infection, vs control treated animals, p<0.01. The method, then:
To determine if calcium flux agonists such as the ionophores A23187 and ionomycin or the SERCA pump inhibitor thapsigargin can be used as a pre-treatment of bacterial infection, the inventors treated the shaved dorsal skin of 6-8 week old male C57B1/6 mice with vehicle alone, or formulations containing 2 mM A23187, ionomycin, or thapsigargin. One day later, the inventors superficially infected the dorsal skin of groups of 5 mice with 2×10^6 CFU of S. aureus and evaluated bacterial burden and wound size over the next week.
Topical delivery: A23187 and ionomycin and thapsigargin were reconstituted in dehydrated ethanol (Spectrum Chemicals, Gardena Calif.) to appropriate concentrations for subsequent formulations. In the pre-infection in vivo study, topical formulations consisted of 75% dehydrated ethanol (Spectrum Chemicals), 22% cyclohexane (Sigma-Aldrich), and 3% dimethyl sulfoxide (Sigma-Aldrich). Each topical formulation was delivered by submersing a circular piece of Whatman paper (Whatman, a division of GE Healthcare) with a 1.0 centimeter diameter and applying said circle to the skin of each recipient for 5 minutes.
Preparation of S. aureus for skin inoculation: Briefly, mid-logarithmic phase S. aureus bacteria was washed twice and resuspended in sterile saline (0.9%) at the noted concentrations. Mice: Male mice, 6-8 weeks old, on a C57BL/6 genetic background were used in all experiments (Jackson Laboratories, Bar Harbor, Me.).
Mouse model of S. aureus skin wound infection: To prepare animals for wound infection, the skin of the posterior upper back and neck of mice was shaved using #40 clippers. Next, three parallel 8 mm long full-thickness scalpel cuts (no. 11 blade) were made into the dermis. Resulting wounds were inoculated with 10 μl of S. aureus (2×10^8 CFUs per mL) with a micropipettor. Total lesion size (cm2) measurements were quantified by determining total pixel count from photographed animals using a millimeter ruler as a reference.
Quantification of in vivo S. aureus bacterial burden: To determine in vivo bacterial burden, infected mice were sacrificed on day 7 following infection and lesions were harvested surgically. Harvested tissues were homogenized and bacterial count was determined following plating on appropriate solid growth media.

The test system of test [4] is S. aureus. In words: Antibiotic sensitivity of S. aureus (OD600 / plating, FIGS. 9A-9C, 10). Format: cell-based. As to conditions: log phase culture, OD600 over time, control kanamycin, 9B. On the procedure:
To determine the antibiotic sensitivity of S. aureus, cultures were grown overnight in tryptic soy broth (Cellgro). The resulting cultures were used to inoculate new cultures to ensure log phase growth prior to the start of the experiment. Once the bacteria had reached log phase the bacteria was diluted to the appropriate OD600˜0.05 and transferred to a 24-well plate. Compounds of interest were added and plates were incubated in a shaking incubator at 37° C. Aliquots were removed at various time points and their respective OD600 was measured using a BioTek Synergy2 microplate reader (BioTek, Winooski, Vt.). For wells whose turbidity was affected by the addition of the compounds of interest, aliquots were removed and plated on tryptic soy agar (Cellgro) and incubated overnight in a 37° C. incubated and counted the following day. Thus, it should be appreciated that the calcium flux agonists are effective in antimicrobial treatments via an indirect effect, most likely due to the enhanced production of IL-8 and increased NF-κB-driven transcription.

As for `CNc1ccc2oc(C[C@H]3O[C@@]4(CC[C@H]3C)O[C@H]([C@H](C)C(=O)c3ccc[nH]3)[C@H](C)C[C@H]4C)nc2c1C(=O)O` [A23187, calcimycin], the “activation of NF-κB signaling” value in test [1] was “significant increases”. The “NF-κB reporter response to S. aureus conditioned/spent media” value in test [2] is “significantly enhanced”. In the test with S. aureus [3], the “bacterial burden at the infection site” value is listed as “significantly fewer bacteria” and the wound size result was “significantly smaller wound sizes”. The “direct antibiotic effect against S. aureus” value (from here on “direct antibiotic effect”) in the test with S. aureus [4] was “some direct antibiotic effect”.

For `C[C@H](CCC(=O)O)C[C@H](C)C[C@H](C)C(=O)/C=C(\O)[C@H](C)C[C@H](C)C/C=C/[C@@H](C)[C@@H](O)[C@@H](C)[C@@H](O)C[C@@H]1CC[C@@](C)([C@H]2CC[C@@](C)([C@@H](C)O)O2)O1` [ionomycin], the “activation of NF-κB signaling” value in test [1] is “significant increases”. In test [2], the “NF-κB reporter response to S. aureus conditioned/spent media” value was “significantly enhanced”. In the test on S. aureus [3], the “bacterial burden at the infection site” value was “significantly fewer bacteria” and the wound size entry is recorded as “significantly smaller wound sizes”. Moreover, the “direct antibiotic effect” value in the test on S. aureus [4] is given as “some direct antibiotic effect”.

As for `C/C=C(/C)C(=O)O[C@H]1C(C)=C2[C@H]([C@@H]1OC(=O)CCCCCCC)[C@@](C)(OC(C)=O)C[C@H](OC(=O)CCC)[C@@]1(O)[C@H]2OC(=O)[C@@]1(C)O` [thapsigargin], the “activation of NF-κB signaling” value in test [1] is “significant increases”. Moreover, the “NF-κB reporter response to S. aureus conditioned/spent media” value in test [2] is on record as “significantly enhanced”. In addition, in the test with S. aureus [3], the “bacterial burden at the infection site” value is “significantly fewer bacteria” and the wound size result is “significantly smaller wound sizes”. Moreover, the “direct antibiotic effect” value with S. aureus [4] is reported as “lack of direct antibiotic effect”.
